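Briefly, cells in 96-well plates were exposed to five compound concentrations for 48 h, and endpoints were estimated by linear interpolation. TGI is the concentration that stops growth completely.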
Tests used:
Test in all cases: growth of human tumour cells (NCI), 48 h
786-0 renal = system: 786-0 renal
A498 renal = system: A498 renal
BT-549 breast = system: BT-549 breast
CCRF-CEM leukemia = system: CCRF-CEM leukemia
DU-145 prostate = system: DU-145 prostate
HL-60(TB) leukemia = system: HL-60(TB) leukemia
HS 578T breast = system: HS 578T breast
MDA-MB-435 = system: MDA-MB-435
MDA-N = system: MDA-N
NCI-H522 lung = system: NCI-H522 lung
NCI/ADR-RES ovarian = system: NCI/ADR-RES ovarian
PC-3 prostate = system: PC-3 prostate
SF-539 CNS = system: SF-539 CNS
SR leukemia = system: SR leukemia
DMS 114 small cell lung = system: DMS 114 small cell lung
HCC-2998 colon = system: HCC-2998 colon
MDA-MB-231 breast = system: MDA-MB-231 breast
NCI-H226 lung = system: NCI-H226 lung
NCI-H460 lung = system: NCI-H460 lung
TK-10 renal = system: TK-10 renal

Measured: TGI

O=C1/C(=C/c2ccco2)N=C(c2ccccc2)N1c1cc2cc(Sc3ccccc3)ccc2[nH]1
5.96 µM: HL-60(TB) leukemia
not listed: DMS 114 small cell lung | HCC-2998 colon | MDA-MB-231 breast | NCI-H226 lung | NCI-H460 lung | TK-10 renal
> 25 µM: all other assays above

N=C(N)SCc1cccc2c(=O)cc(-c3ccccc3)oc12
27.1 µM: HCC-2998 colon
31.1 µM: DMS 114 small cell lung
23.3 µM: 786-0 renal
13.1 µM: HL-60(TB) leukemia
58 µM: NCI-H226 lung
16.2 µM: DU-145 prostate
21.4 µM: MDA-MB-231 breast
45.4 µM: HS 578T breast
18.6 µM: CCRF-CEM leukemia
21.5 µM: MDA-MB-435
17.3 µM: PC-3 prostate
20.9 µM: SF-539 CNS
13.6 µM: NCI-H522 lung
22.9 µM: NCI-H460 lung
28.2 µM: BT-549 breast
> 100 µM: NCI/ADR-RES ovarian | SR leukemia
35.8 µM: A498 renal
26.8 µM: TK-10 renal
21.3 µM: MDA-N

O=C(O)c1oc(C(=O)O)c(C(=O)O)c1C(=O)O
not listed: MDA-MB-435 | SF-539 CNS | DMS 114 small cell lung | HCC-2998 colon
> 100 µM: all other assays above

COc1cccc(CC2Cc3ccccc3CC(=O)N2)c1 (centres undefined)
68.2 µM: HS 578T breast
79.2 µM: MDA-MB-231 breast
72.8 µM: NCI-H460 lung
92.1 µM: BT-549 breast
not listed: 786-0 renal | A498 renal | NCI-H522 lung | DMS 114 small cell lung
> 100 µM: all other assays above

O=C1/C(=C/c2ccc(Cl)cc2)N=C(c2ccccc2)N1c1ccc(S(=O)(=O)Nc2nccs2)cc1
55.9 µM: MDA-MB-231 breast
76.4 µM: MDA-MB-435
47.4 µM: HCC-2998 colon
75.6 µM: HL-60(TB) leukemia
87 µM: CCRF-CEM leukemia
not listed: BT-549 breast | NCI-H522 lung | DMS 114 small cell lung
> 100 µM: all other assays above

CCCCC(=O)Oc1ccc2c(C)cc(=O)oc2c1
not listed: DMS 114 small cell lung
> 100 µM: all other assays above

CC(C)NCCC(O)c1cc2ccccc2o1 (centres undefined)
not listed: CCRF-CEM leukemia | HL-60(TB) leukemia | SR leukemia | DMS 114 small cell lung | HCC-2998 colon
> 100 µM: all other assays above

CCOC(=O)C1=C(C)N(NC(N)=O)C2(O)CCCC(=O)C12C (centres undefined)
> 100 µM: A498 renal | DMS 114 small cell lung | HCC-2998 colon | NCI-H226 lung | NCI-H522 lung | SF-539 CNS | TK-10 renal

COc1ccc(Cc2nccc3cc(OC)c(OC)cc23)cc1OC
not listed: DMS 114 small cell lung
> 100 µM: all other assays above

CCCCS(=O)(=O)Nc1ccc(Nc2c3ccccc3nc3ccccc23)c(OC)c1
22 µM: NCI/ADR-RES ovarian
18.7 µM: NCI-H522 lung
16.7 µM: HCC-2998 colon
6.26 µM: CCRF-CEM leukemia
16.9 µM: NCI-H226 lung
5.79 µM: NCI-H460 lung
5.98 µM: SF-539 CNS
9.85 µM: A498 renal

c1ccc(C[n+]2cccc(-c3cc4ccccc4[nH]3)c2)cc1
43.7 µM: MDA-MB-435
53.9 µM: NCI-H522 lung
37.6 µM: MDA-N
38.6 µM: CCRF-CEM leukemia
40.5 µM: HL-60(TB) leukemia
36.6 µM: BT-549 breast
not listed: SF-539 CNS | DMS 114 small cell lung | HCC-2998 colon
> 100 µM: all other assays above

O=C(O)C12CCCC(CCC1)C2
> 100 µM: A498 renal | CCRF-CEM leukemia | DMS 114 small cell lung | HL-60(TB) leukemia | NCI-H460 lung | NCI-H522 lung | SF-539 CNS | TK-10 renal

NC(CCOCCP(=O)(O)CCOCCC(N)C(=O)O)C(=O)O (centres undefined)
not listed: 786-0 renal | A498 renal | BT-549 breast | MDA-N | PC-3 prostate | DMS 114 small cell lung | NCI-H226 lung
> 100 µM: all other assays above
